Data: patent publication US7759366B2 (Sanofi-Aventis, priority 2006, dated 2010)
Read-outs that look alike come from different tables or passages of the source.

Legend:
[1] = molecular target: T1, hCB1R (Homo sapiens, UniProt P21554); assay: Binding to the CB1 receptor ([3H]-SR141716A displacement)
Protocol: Binding to the CB1 Receptor:
Test compounds: The compounds (3 μl, 10 mM, 100% DMSO), pipetted into 96-well PP microtiter plates, were diluted with 27 μl of 100% DMSO (dimethyl sulfoxide). Proceeding from this solution, further 3-fold dilution steps were undertaken by transferring 10 μl in each case to a new PP microtiter plate and adding a further 20 μl of 100% DMSO. In each case 6 μl of these solutions were transferred into new 96-well PP microtiter plates and made up with 144 μl of assay buffer. The end concentrations ranged from 10 μM to 0.005 μM. Negative control: AM 251, dissolved in assay buffer with 1% DMSO, was added to the dilution series in the microtiter plates as a control. The end concentration was 1 μM. Blank control: assay buffer with 1% DMSO was added to the dilution series of the microtiter plates as a blank control.
Summary of the Assay Parameters:
High control: ^3H binding without addition of the compound
Low control: ^3H binding in the presence of 1 μM AM 251
The values were calculated using the corrected raw data.
The values reported were obtained as average values of a double determination. The IC50 values were calculated from the measurements with the program Xlfit, formula 205. Ki values were obtained from the IC50 and Kd values utilizing the Cheng-Prusoff equation: […]
Literature: Cheng, Y.-C., and Prusoff, W. H. (1973) Biochem. Pharmacol 22, 3099-3108

[2] = molecular target: T1, hCB1R; assay: In vitro functional assay (FLIPR, intracellular Ca2+) with recombinant HEK293 cells, CB1; type: cell-based; parameters: expressed in transfected cells; host or cells: HEK293; settings: recombinant HEK293 cells expressing CB1 and Galpha16; 20 min preincubation, then reference agonist; Ca2+ change; read-out: hCB1R: FLIPR; IC50
From the text: In Vitro Functional Assays with Recombinant Cells:

[3] = CHO-K1/cannabinoid CB1 protein 2 μg/well, [3H]-SR141716A 0.5 nM, Ki from IC50 by Cheng-Prusoff, average of double determination, read-out: hCB1R, binding Ki

T1 sequence (P21554 whole entry): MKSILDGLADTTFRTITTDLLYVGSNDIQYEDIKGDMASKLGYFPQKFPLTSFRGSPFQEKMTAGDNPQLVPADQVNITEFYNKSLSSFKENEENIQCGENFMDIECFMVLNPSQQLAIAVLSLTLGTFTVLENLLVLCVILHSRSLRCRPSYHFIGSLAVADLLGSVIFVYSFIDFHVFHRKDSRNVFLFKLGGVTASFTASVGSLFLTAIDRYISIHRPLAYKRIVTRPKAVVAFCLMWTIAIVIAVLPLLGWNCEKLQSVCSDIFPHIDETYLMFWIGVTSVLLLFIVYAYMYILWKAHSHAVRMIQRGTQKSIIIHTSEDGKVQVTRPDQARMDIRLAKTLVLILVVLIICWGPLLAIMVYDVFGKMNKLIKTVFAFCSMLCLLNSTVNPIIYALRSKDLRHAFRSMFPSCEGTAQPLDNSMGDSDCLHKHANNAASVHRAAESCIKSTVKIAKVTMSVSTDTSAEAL

Structure (SMILES)	IC50 [2] [nM]	other results
COC(=O)c1cc(Nc2ccccc2CN2C(=O)N(c3ccc(C#N)c(C(F)(F)F)c3)C(=O)C2(C)C)ccc1OC [Example 129, methyl 5-{2-[3-(4-cyano-3-trifluoromethylphenyl)-5,5-dimethyl-2,4-dioxoimidazolidin-1-ylmethyl]phenylamino}-2-methoxybenzoate]		Ki [1]: 10 nM
CC(C)(C)OC(=O)c1ccc(Nc2cc(C#N)ccc2CN2C(=O)N(c3ccc(C#N)c(C(F)(F)F)c3)C(=O)C2(C)C)cc1 [Example 126, tert-Butyl 4-{5-cyano-2-[3-(4-cyano-3-trifluoromethylphenyl)-5,5-dimethyl-2,4-dioxoimidazolidin-1-ylmethyl]phenylamino}benzoate]		Ki [1]: 23 nM
CC1(C)C(=O)N(c2ccc(F)c(C(F)(F)F)c2)C(=O)N1Cc1ccccc1Nc1ccc(F)cc1 [Example 24, 1-[2-(4-fluorophenylamino)benzyl]-3-(4-fluoro-3-trifluoromethylphenyl)-5,5-dimethylimidazolidine-2,4-dione]		Ki [1, 3]: 11 nM
CC1(C)C(=O)N(c2ccc(C#N)nc2)C(=O)N1Cc1ccccc1Nc1ccccc1 [Example 69]		Ki [1, 3]: 113 nM
COC(=O)c1ccc(Nc2cc(F)ccc2CN2C(=O)N(c3ccc(C#N)c(-c4ccc(Cl)cc4)c3)C(=O)C2(C)C)cc1 [Example 224, methyl 4-{2-[3-(4′-chloro-6-cyanobiphenyl-3-yl)-5,5-dimethyl-2,4-dioxoimidazolidin-1-ylmethyl]-5-fluorophenylamino}benzoate]		Ki [1, 3]: 6 nM
CC1(C)C(=O)N(c2ccc(C#N)c(C(F)(F)F)c2)C(=O)N1Cc1ccccc1Nc1ccc(Oc2ccccc2)cc1 [Example 128, 4-{4,4-dimethyl-2,5-dioxo-3-[2-(4-phenoxyphenylamino)benzyl]-imidazolidin-1-yl}-2-trifluoromethylbenzonitrile]		Ki [1]: 2 nM
CC1(C)C(=O)N(c2ccc(F)c(C(F)(F)F)c2)C(=O)N1Cc1ccccc1Nc1ccc(C#N)cc1 [Example 134, 4-{2-[3-(4-fluoro-3-trifluoromethylphenyl)-5,5-dimethyl-2,4-dioxoimidazolidin-1-ylmethyl]phenylamino}benzonitrile]		Ki [1]: 4 nM
COC(=O)c1ccc(Nc2cc(F)ccc2CN2C(=O)N(c3ccc(C#N)c(C)c3)C(=O)C2(C)C)cc1 [Example 160, Methyl 4-{2-[3-(4-cyano-3-methylphenyl)-5,5-dimethyl-2,4-dioxoimidazolidin-1-ylmethyl]-5-fluorophenylamino}benzoate]		Ki [1]: 3 nM
CC1(C)C(=O)N(c2ccc(F)c(C(F)(F)F)c2)C(=O)N1Cc1ccc(F)cc1Nc1ccc(C(=O)N2CCNCC2)cc1 [Example 172, 1-{4-Fluoro-2-[4-(piperazine-1-carbonyl)phenylamino]benzyl}-3-(4-fluoro-3-trifluoromethylphenyl)-5,5-dimethylimidazolidine-2,4-dione]		Ki [1, 3]: 8 nM
CC1(C)C(=O)N(c2ccc(C#N)c(C(F)(F)F)c2)C(=O)N1Cc1ccccc1Nc1ccc(C(=O)NCCO)cc1 [Example 149, 4-{2-[3-(4-cyano-3-trifluoromethylphenyl)-5,5-dimethyl-2,4-dioxoimidazolidin-1-ylmethyl]phenylamino}-N-(2-hydroxyethyl)benzamide]		Ki [1]: 6 nM
CC1(C)C(=O)N(c2ccc(C#N)c(C(F)(F)F)c2)C(=O)N1Cc1cc(Cl)cc(Cl)c1Nc1ccc(F)cc1 [Example 38, 4-{3-[3,5-Dichloro-2-(4-fluorophenylamino)benzyl]-4,4-dimethyl-2,5-dioxoimidazolidin-1-yl}-2-trifluoromethylbenzonitrile]	70	
COC(=O)c1ccc(Nc2ccccc2CN2C(=O)N(c3ccc(C#N)c(C(F)(F)F)c3)C(=O)C2(C)C)c(F)c1 [Example 72, methyl 4-{2-[3-(4-cyano-3-trifluoromethylphenyl)-5,5-dimethyl-2,4-dioxoimidazolidin-1-ylmethyl]phenylamino}-3-fluorobenzoate]	24	
CC1(C)C(=O)N(c2ccc(C#N)c(C(F)(F)F)c2)C(=O)N1Cc1c(Cl)cc(Cl)cc1Nc1ccc(Cl)cc1 [Example 37, 4-{3-[2,4-dichloro-6-(4-chlorophenylamino)benzyl]-4,4-dimethyl-2,5-dioxoimidazolidin-1-yl}-2-trifluoromethylbenzonitrile]	21	
CC1(C)C(=O)N(c2ccc(C#N)c(C(F)(F)F)c2)C(=O)N1Cc1ccccc1Nc1ccc(NS(C)(=O)=O)cc1 [Example 175, N-(4-{2-[3-(4-Cyano-3-trifluoromethylphenyl)-5,5-dimethyl-2,4-dioxoimidazolidin-1-ylmethyl]phenylamino}phenyl)methanesulfonamide]	9	
CC(=O)Nc1ccc(Nc2ccccc2CN2C(=O)N(c3ccc(C#N)c(C(F)(F)F)c3)C(=O)C2(C)C)cc1 [Example 148, N-(4-{2-[3-(4-Cyano-3-trifluoromethylphenyl)-5,5-dimethyl-2,4-dioxoimidazolidin-1-ylmethyl]phenylamino}phenyl)acetamide]	11	
COC(=O)C1=C[C@@H](O)[C@H](O)[C@@H](Oc2ccc(Nc3ccccc3CN3C(=O)N(c4ccc(C#N)c(C(F)(F)F)c4)C(=O)C3(C)C)cc2)O1 [Example 145, methyl (4R,5S,6S)-6-(4-{2-[3-(4-cyano-3-trifluoromethylphenyl)-5,5-dimethyl-2,4-dioxoimidazolidin-1-ylmethyl]phenylamino}phenoxy)-4,5-dihydroxy-5,6-dihydro-4H-pyran-2-carboxylate]	14	
CC1(C)C(=O)N(c2ccc(C#N)c(C(F)(F)F)c2)C(=O)N1Cc1ccccc1Nc1cccc(Cl)c1 [Example 22, 4-{3-[2-(3-chlorophenylamino)benzyl]-4,4-dimethyl-2,5-dioxoimidazolidin-1-yl}-2-trifluoromethylbenzonitrile]	46	
CC1(C)C(=O)N(c2ccc(C#N)c(C(F)(F)F)c2)C(=O)N1Cc1ccccc1Nc1ccc(C#N)cc1 [Example 33, 4-{3-[2-(4-cyanophenylamino)benzyl]-4,4-dimethyl-2,5-dioxoimidazolidin-1-yl}-2-trifluoromethylbenzonitrile]	4	
COC(=O)c1ccc(Nc2cc(F)ccc2CN2C(=O)N(c3ccc(C#N)c(C4CC4)c3)C(=O)C2(C)C)cc1 [Example 158, Methyl 4-{2-[3-(4-cyano-3-cyclopropylphenyl)-5,5-dimethyl-2,4-dioxoimidazolidin-1-ylmethyl]-5-fluorophenylamino}benzoate]	9	
CC1(C)C(=O)N(c2ccc(C#N)c(C(F)(F)F)c2)C(=O)N1Cc1ccccc1Nc1ccccc1Cl [Example 21, 4-{3-[2-(2-chlorophenylamino)benzyl]-4,4-dimethyl-2,5-dioxoimidazolidin-1-yl}-2-trifluoromethylbenzonitrile]	10	
CC1(C)C(=O)N(c2ccc(C#N)c(C(F)(F)F)c2)C(=O)N1Cc1ccccc1Nc1ccc(O)nn1 [Example 198, 4-{3-[2-(6-Hydroxypyridazin-3-ylamino)benzyl]-4,4-dimethyl-2,5-dioxoimidazolidin-1-yl}-2-trifluoromethylbenzonitrile trifluoroacetic acid]	23	
CC1(C)C(=O)N(c2ccc(C#N)c(C(F)(F)F)c2)C(=O)N1Cc1ccccc1Nc1ccc2c(c1)C(=O)OC2 [Example 200, 4-{4,4-dimethyl-2,5-dioxo-3-[2-(3-oxo-1,3-dihydroisobenzofuran-5-ylamino)benzyl]imidazolidin-1-yl}-2-trifluoromethylbenzonitrile]	8	
Cc1cc(N2C(=O)N(Cc3ccc(F)cc3Nc3ccc(C(N)=O)cc3)C(C)(C)C2=O)ccc1C#N [Example 190, 4-{2-[3-(4-Cyano-3-methylphenyl)-5,5-dimethyl-2,4-dioxoimidazolidin-1-ylmethyl]-5-fluorophenylamino}benzamide]	76	
CC1(C)C(=O)N(c2ccc(C#N)c(-c3ccc(F)cc3)c2)C(=O)N1Cc1ccc(F)cc1Nc1ccc(C(=O)O)cc1 [Example 258, 4-{2-[3-(6-Cyano-4′-fluorobiphenyl-3-yl)-5,5-dimethyl-2,4-dioxoimidazolidin-1-ylmethyl]-5-fluorophenylamino}benzoic acid]	31	
CC1(C)C(=O)N(c2ccc(C#N)c(-c3ccc(F)cc3)c2)C(=O)N1Cc1ccc(F)cc1Nc1ccc(F)cc1F [Example 253, 5-{3-[2-(2,4-Difluorophenylamino)-4-fluorobenzyl]-4,4-dimethyl-2,5-dioxoimidazolidin-1-yl}-4′-fluorobiphenyl-2-carbonitrile]	29	
COC(=O)c1ccc(Nc2cc(F)ccc2CN2C(=O)N(c3ccc(F)c(C(F)(F)F)c3)C(=O)C2(C)C)cn1 [Example 255, Methyl 5-{5-fluoro-2-[3-(4-fluoro-3-trifluoromethylphenyl)-5,5-dimethyl-2,4-dioxoimidazolidin-1-ylmethyl]phenylamino}pyridine-2-carboxylate]	28	
